# Assay results: US20130058922A1 (priority 2009, published 2013)
# “And” between values parts separate entries of the source, which are not always exact repeats. Identical values can stand only once. Like-named read-outs stand apart in the source and are kept apart here.
# Key:
# [1] = Clinical observation of patients during and after choline infusion therapy (vital parameters, tolerability, condition)
# [2] = test system: leukocytes / dysfunctional leukocyte precursors
# Experimental: (§1) Depending on the dose, the infusion therapy was applied for 3-5 hours.
# [3] = test system: circulating tumour cells (CTCs)
# Experimental: as §1
# [4] = test system: circulating tumour cells (CTCs) in the blood; details: in vitro; tumour cells in blood of 13 patients (breast, colon, prostate, pancreas cancer); MAINTRAC
# Description: This method allows the detection of smallest amounts of tumour cells in blood and other body fluids (Pachmann K., Clement J. H., Schneider C.-P., Willen B., Camara O., Pachmann U., Hoeffken K., Standardized quantification of circulating peripheral tumour cells from lung and breast cancer. Clin. Chem. Lab-Med., 2005, 43; 617-627).
# [5] = mean of Table 2 leukaemia measurements, one i.v. choline therapy for 3 to 5 hours
# [6] = Gastric CA, one i.v. choline therapy for 3 to 5 hours, MainTrac
# [7] = Histiocytoma, one i.v. choline therapy for 3 to 5 hours, MainTrac
# [8] = Prostate CA, one i.v. choline therapy for 3 to 5 hours, MainTrac
# [9] = mean over all tumour types of Table 1, one i.v. choline therapy for 3 to 5 hours, MainTrac
smiles,measurement,setting,value
C[N+](C)(C)CCO [choline],"changes in vital parameters (RR, pulse, SO2, ECG, temperature)","[1]; 9 tumour patients, during and subsequent to i.v. infusion therapy of 3-5 hours",no patient showed relevant changes in the vital parameters
same,tolerability of the infusion therapy,"[1]; 9 tumour patients, i.v. infusion for 3-5 hours",very well tolerated
same,side effects,"[1]; in some cases, on the following day, in general only during few hours, depending on the dose",nausea and increased temperature
same,"Leukocytes, After 4 weeks value","[2]; leukaemia patient blood, 4 weeks after one i.v. choline therapy",281.60
same,"Leukocytes, After − before Δ% before (after 4 weeks)","[2]; leukaemia patient blood, 4 weeks after one i.v. choline therapy, compared to the initial value",−8%
same,"Leukocytes after therapy, mean values","[2]; mean of Table 2 leukaemia measurements, after one i.v. choline therapy for 3 to 5 hours",228.53
same,"Leukocytes After − before Difference (Δ), mean values",[2]; [5],−25.77
same,"Leukocytes After − before Δ % before, mean values",[2]; [5],−10.00%
same,CTCs after therapy,"[3]; Gastric CA, after one i.v. choline therapy for 3 to 5 hours, MainTrac",1.75 million tumour cells
same,CTCs After − before Difference (Δ),[3]; [6],−12.25 million tumour cells
same,CTCs After − before Δ % before,[3]; [6],−87.00%
same,CTCs after therapy,"[3]; Histiocytoma, after one i.v. choline therapy for 3 to 5 hours, MainTrac",65.00 million tumour cells
same,CTCs After − before Difference (Δ),[3]; [7],−307.50 million tumour cells
same,CTCs After − before Δ % before,[3]; [7],−82.00%
same,CTCs after therapy,"[3]; Pancreas CA, after one i.v. choline therapy for 3 to 5 hours, MainTrac",3.00 million tumour cells and 2.75 million tumour cells
same,CTCs after therapy,"[3]; Prostate CA, after one i.v. choline therapy for 3 to 5 hours, MainTrac",8.75 million tumour cells
same,CTCs After − before Difference (Δ),[3]; [8],−3.75 million tumour cells
same,CTCs After − before Δ % before,[3]; [8],−30.00%
same,"After − before Δ% before (after 4 weeks), mean values","[3]; Table 3 mean of leukaemia patient leukocytes and breast cancer patient CTCs, 4 weeks later",−40.00%
same,"After − before Δ% before, mean values","[3]; Table 3 mean of leukaemia patient leukocytes and breast cancer patient CTCs, directly after therapy",−30.00%
same,"MainTrac (CTCs), After 4 weeks value","[3]; breast cancer patient, after another 4 weeks without therapy",5.25 million tumour cells
same,"MainTrac (CTCs), After − before Δ% before (after 4 weeks)","[3]; breast cancer patient, after another 4 weeks without therapy, relative to initial value",−72.00%
same,"CTCs after therapy, mean value","[3]; mean over all tumour types of Table 1, after one i.v. choline therapy for 3 to 5 hours, MainTrac",9.75 million tumour cells
same,"CTCs After − before Difference (Δ), mean value",[3]; [9],−37 million tumour cells and −37.00 million tumour cells
same,"CTCs After − before Δ % before, mean value",[3]; [9],−54.6%
same,cytosensitivity to choline,[4],up to 95%
